From patent EP4603105A1, “PHARMACEUTICAL COMPOSITION CONTAINING CYCLIC COMPOUND HAVING SELECTIVE KRAS INHIBITORY EFFECT AGAINST HRAS AND NRAS” (CHUGAI SEIYAKU KABUSHIKI KAISHA, priority 2022, dated 2024)
Like-named read-outs stand apart in the source and are kept apart here. Where a SMILES comes first, the peptide text is derived from it. Bridges are numbered along the chain shown (N, C = ends). [ ]: non-standard residue; d: D form. The star is where a group is joined. hPhe(3-Cl-4-CF3) = N[C@@H](CCc1ccc(C(F)(F)F)c(Cl)c1)C(=O)O; NPrPhe(4-CF3) = CCCN[C@@H](Cc1ccc(C(F)(F)F)cc1)C(=O)O; NMeGly(cPent) = CN[C@H](C(=O)O)C1CCCC1; Pro(4,4-Me2) = CC1(C)CN[C@H](C(=O)O)C1; NMeD = CN[C@@H](CC(=O)O)C(=O)O; NMeL = CN[C@@H](CC(C)C)C(=O)O; Morpholide = C1CN(*)CCO1; NMeA = CN[C@@H](C)C(=O)O; Ac5c = NC1(C(=O)O)CCCC1; Aze = O=C(O)[C@@H]1CCN1; Sar = CNCC(=O)O

Key:
[1] = molecular target: GDP-bound NRAS wild-type protein (Homo sapiens, UniProt P01111); experiment: Binding to NRAS by surface plasmon resonance (SPR), KD and KD ratio to KRAS
Outline: (§1)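 Affinity is measured by surface plasmon resonance at 30°C against captured, GDP-loaded RAS carrying a biotinylated Avi tag. Compounds are titrated by single-cycle kinetics, and KD comes from a 1:1 fit.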

HRAS wild-type protein = HRAS wild-type protein (Homo sapiens, UniProt P01112); experiment: Binding to HRAS by surface plasmon resonance (SPR), KD and KD ratio to KRAS
Outline: as §1

[2] = system: human lung cancer strain NCI-H441; type: cell-based
Outline: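 Readout: […] after the ATP-based reagent. Compound: serial dilutions in dimethyl sulfoxide.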

[3] = ratio of KD for GDP-bound NRAS wild-type protein to KD for KRAS
[4] = ratio of KD for HRAS wild-type protein to KD for KRAS
[5] = ratio of the KD value with respect to GDP-bound NRAS wild-type protein to the KD value with respect to KRAS
[6] = ratio of the KD value with respect to HRAS wild-type protein to the KD value with respect to KRAS
[7] = ratio of KD value for GDP-bound NRAS wild-type protein to KD value for KRAS (SPR)
[8] = ratio of KD value for HRAS wild-type protein to KD value for KRAS (SPR)

GDP-bound NRAS wild-type protein, sequence (P01111 whole entry): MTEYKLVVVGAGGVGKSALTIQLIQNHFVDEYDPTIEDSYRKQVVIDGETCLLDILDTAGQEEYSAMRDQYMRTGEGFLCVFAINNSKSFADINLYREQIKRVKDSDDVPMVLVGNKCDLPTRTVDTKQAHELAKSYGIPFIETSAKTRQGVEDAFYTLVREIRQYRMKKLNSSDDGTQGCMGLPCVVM
HRAS wild-type protein, sequence (P01112 whole entry): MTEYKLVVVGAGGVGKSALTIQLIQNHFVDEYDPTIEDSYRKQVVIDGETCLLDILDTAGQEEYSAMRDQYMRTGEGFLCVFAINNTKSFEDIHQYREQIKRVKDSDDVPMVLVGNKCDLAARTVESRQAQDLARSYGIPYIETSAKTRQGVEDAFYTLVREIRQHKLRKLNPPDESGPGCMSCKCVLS

SMILES | NRAS /KRAS [1, 3] | HRAS /KRAS (HRAS wild-type protein; [4]) | IC50 [2] | NRAS /KRAS [1, 5] | HRAS /KRAS (HRAS wild-type protein; [6]) | NRAS /KRAS [1, 7] | HRAS /KRAS (HRAS wild-type protein; [8]) | IC50 ([2]; NCI-H441 cells, 4 days, CellTiter-Glo, read-out: NCl-H441 IC50)
CCC[C@H]1C(=O)N[C@@H]([C@@H](C)CC)C(=O)N(C)CC(=O)N(C)[C@H]2C/C=C\CCN(C2=O)[C@@H](Cc2ccc(C(F)(F)F)cc2)C(=O)N(C)CC(=O)N[C@@H](CCc2ccc(C(F)(F)F)c(Cl)c2)C(=O)N2CC3(CC3)C[C@H]2C(=O)NC2(CC(C)(C)C2)C(=O)N(C)[C@@H]([C@@H](C)CC)C(=O)N(C)[C@H](C(=O)N(C)C)CC(=O)N1C [PP2983] | AA (a compound having 20 or more is denoted as AA) | A (a compound having 10 or more and less than 20 is denoted as A) | 18.7 nM |  |  |  |  | 
CC[C@H](C)[C@@H]1NC(=O)[C@H](CC(C)C)N(C)C(=O)C[C@@H](C(=O)N2CCOCC2)N(C)C(=O)[C@H](C2CCCC2)N(C)C(=O)C2(CCCC2)NC(=O)[C@@H]2CCCN2C(=O)[C@H](CCc2cc(F)c(C(F)(F)F)c(F)c2)NC(=O)CN(C)C(=O)[C@H](Cc2ccc(C(F)(F)F)cc2)N2CCCC[C@@H](C2=O)N(C)C(=O)[C@@H]2CCCCN2C1=O [PP0548] |  |  | 501 nM | C (A compound having a KD ratio of 0.1 or more and less than 3 is denoted as C) | B (a compound having 3 or more and less than 10 is denoted as B) |  |  | 
CCO[C@@H]1C[C@H]2C(=O)NC3(CC(C)(C)C3)C(=O)N(C)[C@@H](C(CC)CC)C(=O)N(C)[C@H](C(=O)N(C)C)CC(=O)N(C)[C@@H](CC3CCC3)C(=O)N[C@@H]([C@@H](C)CC)C(=O)N(C)CC(=O)N(C)[C@H]3C/C=C\CCN(C3=O)[C@@H](Cc3ccc(C)cc3)C(=O)N(C)CC(=O)N[C@@H](CCc3ccc(C(F)(F)F)c(OC)c3)C(=O)N2C1 [PP2172] |  |  | 5.8 nM | A (a compound having 10 or more and less than 20 is denoted as A) | B (a compound having 3 or more and less than 10 is denoted as B) |  |  | 
CCO[C@@H]1C[C@H]2C(=O)NC3(CC(C)(C)C3)C(=O)N(C)[C@@H](C3CCCC3)C(=O)N(C)[C@H](C(=O)N(C)C)CC(=O)N(C)[C@@H](CC3CCC3)C(=O)N[C@@H]([C@@H](C)CC)C(=O)N(C)CC(=O)N(C)[C@H]3C/C=C\CCN(C3=O)[C@@H](Cc3ccc(C(F)(F)F)cc3)C(=O)N(C)CC(=O)N[C@@H](CCc3ccc(C(F)(F)F)c(Cl)c3)C(=O)N2C1 [PP1752] |  |  | 5.8 nM |  |  | A (a compound having 10 or more and less than 20 is denoted as A) | A (a compound having 10 or more and less than 20 is denoted as A) | 
CCOC[C@H]1C(=O)N[C@@H]([C@@H](C)CC)C(=O)N(C)CC(=O)N(C)[C@H]2C/C=C\CCN(C2=O)[C@@H](Cc2ccc(C)c(F)c2)C(=O)N(C)CC(=O)N[C@@H](CCc2ccc(C(F)(F)F)c(OC)c2)C(=O)N2C[C@@H](C)C[C@H]2C(=O)NC2(CC(C)(C)C2)C(=O)N(C)[C@@H](C2CCCC2)C(=O)N(C)[C@H](C(=O)N(C)CC)CC(=O)N1C [PP2698] | A (a compound having 10 or more and less than 20 is denoted as A) | A (a compound having 10 or more and less than 20 is denoted as A) |  |  |  |  |  | 30.4 nM
CCO[C@@H]1C[C@H]2C(=O)NC3(CCCC3)C(=O)N(C)[C@@H](C3CCCC3)C(=O)N(C)[C@H](C(=O)N(C)C)CC(=O)N(C)[C@@H](CC)C(=O)N[C@@H]([C@@H](C)CC)C(=O)N(C)CC(=O)N(C)[C@H]3CC(C)=CCN(C3=O)[C@@H](Cc3ccc(C(F)(F)F)cc3)C(=O)N(C)CC(=O)N[C@@H](CCc3cc(F)c(C(F)(F)F)c(F)c3)C(=O)N2C1 [PP1036] | C (A compound having a KD ratio of 0.1 or more and less than 3 is denoted as C) | C (A compound having a KD ratio of 0.1 or more and less than 3 is denoted as C) | 150 nM |  |  |  |  | 
CCCN(C)C(=O)[C@@H]1CC(=O)N(C)[C@@H](C(C)C)C(=O)N[C@@H]([C@@H](C)CC)C(=O)N(C)CC(=O)N(C)[C@H]2C/C=C\CCN(C2=O)[C@@H](Cc2ccc(C(F)(F)F)cc2)C(=O)N(C)CC(=O)N[C@@H](CCc2cc(F)c(C(F)(F)F)c(F)c2)C(=O)N2C[C@H](OCC)C[C@H]2C(=O)NC2(CCC2)C(=O)N(C)[C@@H](C2CCCC2)C(=O)N1C [PP1992] |  |  | 17.7 nM | AA (a compound having 20 or more is denoted as AA) | B (a compound having 3 or more and less than 10 is denoted as B) |  |  | 
CCO[C@@H]1C[C@H]2C(=O)NC3(CC(C)(C)C3)C(=O)N(C)[C@@H](C3CCCC3)C(=O)N(CC)[C@H](C(=O)N(C)C)CC(=O)N(C)[C@@H](CC)C(=O)N[C@@H]([C@@H](C)CC)C(=O)N(C)CC(=O)N(C)[C@H]3C/C=C\CCN(C3=O)[C@@H](Cc3ccc(C(F)(F)F)cc3)C(=O)N(C)CC(=O)N[C@@H](CCc3cc(F)c(C(F)(F)F)c(F)c3)C(=O)N2C1 [PP1768] |  |  | 4.9 nM |  |  | A (a compound having 10 or more and less than 20 is denoted as A) | A (a compound having 10 or more and less than 20 is denoted as A) | 
CC[C@H](C)[C@@H]1NC(=O)[C@H](CC)N(C)C(=O)C[C@@H](C(=O)N(C)C)N(C)C(=O)[C@H](C2CCCC2)N(C)C(=O)C2(CC(C)(C)C2)NC(=O)[C@@H]2C[C@H](C)CN2C(=O)[C@H](CCc2ccc(C(F)(F)F)c(Cl)c2)NC(=O)CN(C)C(=O)[C@H](Cc2ccc(C)cc2)N2CC/C=C\C[C@@H](C2=O)N(C)C(=O)CN(C)C1=O [PP1844] |  |  | 12.3 nM |  |  | A (a compound having 10 or more and less than 20 is denoted as A) | B (a compound having 3 or more and less than 10 is denoted as B) | 
C#CCN1CC(=O)N(C)[C@H]2C/C=C\CCN(C2=O)[C@@H](Cc2ccc(C(F)(F)F)cc2)C(=O)N(C)CC(=O)N[C@@H](CCc2ccc(C(F)(F)F)c(OC)c2)C(=O)N2C[C@H](OCC)C[C@H]2C(=O)NC2(CC(C)(C)C2)C(=O)N(C)[C@@H](C2CCCC2)C(=O)N(C)[C@H](C(=O)N(C)C)CC(=O)N(C)[C@@H](CCC)C(=O)N[C@@H]([C@@H](C)CC)C1=O [PP2107] |  |  | 7.8 nM | A (a compound having 10 or more and less than 20 is denoted as A) | A (a compound having 10 or more and less than 20 is denoted as A) |  |  | 
CCC[C@H]1C(=O)N[C@@H]([C@@H](C)CC)C(=O)N(C2CC2)CC(=O)N(C)[C@H]2C/C=C\CCN(C2=O)[C@@H](Cc2ccc(C(F)(F)F)cc2)C(=O)N(C)CC(=O)N[C@@H](CCc2cc(F)c(C(F)(F)F)c(F)c2)C(=O)N2C[C@H](OCC)C[C@H]2C(=O)N(C)C2(CCC2)C(=O)N(C)[C@@H](C2CCCC2)C(=O)N(C)[C@H](C(=O)N2CCCCC2)CC(=O)N1C [PP3110] | A (a compound having 10 or more and less than 20 is denoted as A) | A (a compound having 10 or more and less than 20 is denoted as A) | 69.9 nM |  |  |  |  | 
CCO[C@@H]1C[C@H]2C(=O)NC3(CC(C)(C)C3)C(=O)N(C)[C@@H](C3CCCC3)C(=O)N(C)[C@H](C(=O)N(C)CC)CC(=O)N(C)[C@H]3CCCC/C=C/c4ccc(cc4)C[C@@H](C(=O)N(C)CC(=O)N[C@@H](CCc4ccc(C(F)(F)F)c(OC)c4)C(=O)N2C1)N1CC/C=C\C[C@@H](C1=O)N(C)C(=O)CN(C)C(=O)[C@H]([C@@H](C)CC)NC3=O [PP1830] |  |  | 4.7 nM |  |  | A (a compound having 10 or more and less than 20 is denoted as A) | B (a compound having 3 or more and less than 10 is denoted as B) | 
CCO[C@@H]1C[C@H]2C(=O)NC3(CC(C)(C)C3)C(=O)N(C)[C@@H](C(CC)CC)C(=O)N(C)[C@H](C(=O)N(C)C)CC(=O)N(C)[C@@H](CC(C)C)C(=O)N[C@@H]([C@@H](C)CC)C(=O)N(C)CC(=O)N(C)[C@H]3C/C=C\CCN(C3=O)[C@@H](Cc3ccc(C)cc3)C(=O)N(C)CC(=O)N[C@@H](CCc3ccc(Cl)c(Cl)c3)C(=O)N2C1 [PP2185] |  |  | 36.1 nM | AA (a compound having 20 or more is denoted as AA) | A (a compound having 10 or more and less than 20 is denoted as A) |  |  | 
CCCN1C(=O)[C@@H]2CCN2C(=O)[C@H](C)N(C)C(=O)[C@H]([C@@H](C)CC)NC(=O)[C@H](CC(C)C)N(C)C(=O)C[C@@H](C(=O)N2CCOCC2)N(C)C(=O)[C@H](C2CCCC2)N(C)C(=O)C2(CCCC2)NC(=O)[C@@H]2CC(C)(C)CN2C(=O)[C@H](CCc2ccc(C(F)(F)F)c(Cl)c2)NC(=O)CN(C)C(=O)[C@@H]1Cc1ccc(C(F)(F)F)cc1 [PP0454] ([NMeL]I[NMeA][Aze][NPrPhe(4-CF3)][Sar][hPhe(3-Cl-4-CF3)][Pro(4,4-Me2)][Ac5c][NMeGly(cPent)][NMeD]-Morpholide; lactam N-11) |  |  | 2.9 nM | C (A compound having a KD ratio of 0.1 or more and less than 3 is denoted as C) | C (A compound having a KD ratio of 0.1 or more and less than 3 is denoted as C) |  |  | 
CCCN1C(=O)CN(C)C(=O)CN(C)C(=O)[C@H]([C@@H](C)CC)NC(=O)[C@H](CC(C)C)N(C)C(=O)C[C@@H](C(=O)N2CCOCC2)N(C)C(=O)[C@H](C2CCCC2)N(C)C(=O)C2(CCCC2)NC(=O)[C@@H]2CCN2C(=O)[C@H](CCc2ccc(C(F)(F)F)c(Cl)c2)NC(=O)CN(C)C(=O)[C@@H]1Cc1ccc(C(F)(F)F)cc1 [PP0260] ([NMeL]I[Sar][Sar][NPrPhe(4-CF3)][Sar][hPhe(3-Cl-4-CF3)][Aze][Ac5c][NMeGly(cPent)][NMeD]-Morpholide; lactam N-11) | B (a compound having 3 or more and less than 10 is denoted as B) | C (A compound having a KD ratio of 0.1 or more and less than 3 is denoted as C) | 16.8 nM |  |  |  |  | 
